Measured values published in US8952024B2, “Herbicidal pyrimidone derivatives” (E I du Pont de Nemours and Company, priority 2009, dated 2015).

Tests used:
Assay type in all cases: in vivo
[1] = test system: bermudagrass (Cynodon dactylon); assay: Test B pre-/postemergence plant response; details: for Bermudagrass plant response rating (0 to 100 scale): 62 g ai/ha, 0 is no effect, 13 to 15 days
How it was run: (§1)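 Visually scored on a 0 to 100 scale after 13 to 15 days in greenhouse versus controls. Treatments were preemergence on seeded loam/sand soil and postemergence on 1- to 4-leaf plants.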

[2] = test system: lambsquarters (Chenopodium album); assay: Test B pre-/postemergence plant response; details: for Lambsquarters plant response rating (0 to 100 scale): 62 g ai/ha, 0 is no effect, 13 to 15 days
How it was run: as §1

[3] = test system: wheat (Triticum aestivum); assay: Test B pre-/postemergence plant response; details: for Wheat plant response rating (0 to 100 scale): 62 g ai/ha, 0 is no effect, 13 to 15 days
How it was run: as §1

[4] = test system: pigweed (Amaranthus retroflexus); assay: Test B pre-/postemergence plant response; details: for Pigweed plant response rating (0 to 100 scale): 62 g ai/ha, 0 is no effect, 13 to 15 days
How it was run: as §1

[5] = test system: ragweed (common ragweed, Ambrosia elatior); assay: Test B pre-/postemergence plant response; details: for Ragweed plant response rating (0 to 100 scale): 62 g ai/ha, 0 is no effect, 13 to 15 days
How it was run: as §1

[6] = test system: Italian ryegrass (Lolium multiflorum); assay: Test B pre-/postemergence plant response; details: for Ryegrass, Italian plant response rating (0 to 100 scale): 62 g ai/ha, 0 is no effect, 13 to 15 days
How it was run: as §1

[7] = test system: canarygrass (Phalaris minor); assay: Test B postemergence plant response; details: for Canarygrass plant response rating (0 to 100 scale): 62 g ai/ha, 0 is no effect, 13 to 15 days
From the text: (§2) At the same time, plants selected from these crop and weed species and also winter barley (Hordeum vulgare), canarygrass (Phalaris minor), chickweed (Stellaria media) and windgrass (Apera spica-venti) were planted in pots containing Redi-Earth® planting medium (Scotts Company, 14111 Scottslawn Road, Marysville, Ohio 43041) comprising spaghnum peat moss, vermiculite, wetting agent and starter nutrients and treated with postemergence applications of some of the test chemicals formulated in the same manner. Plants ranged in height from 2 to 18 cm (1- to 4-leaf stage) for postemergence treatments.
(§3) Treated plants and controls were maintained in a greenhouse for 13 to 15 days, after which time all treated plants were visually evaluated and compared to controls. Plant response ratings, summarized in Table B, are based on a scale of 0 to 100 where 0 is no effect and 100 is complete control. A dash (-) response means no test result.

[8] = test system: winter barley (Hordeum vulgare); assay: Test B postemergence plant response; details: for Barley plant response rating (0 to 100 scale): 62 g ai/ha, 0 is no effect, 13 to 15 days
From the text: as §2, §3

[9] = test system: windgrass (Apera spica-venti); assay: Test B postemergence plant response; details: for Windgrass plant response rating (0 to 100 scale): 62 g ai/ha, 0 is no effect, 13 to 15 days
From the text: as §2, §3

[10] = test system: chickweed (Stellaria media); assay: Test B postemergence plant response; details: for Chickweed plant response rating (0 to 100 scale): 62 g ai/ha, 0 is no effect, 13 to 15 days
From the text: as §2, §3

[11] = 31 g ai/ha, postemergence, scale 0 to 100, 0 is no effect, 100 is complete control
[12] = postemergence, 100 is complete control
[13] = Postemergence, 125 g ai/ha, visual rating after 13 to 15 days, scale 0 (no effect) to 100 (complete control)
[14] = Postemergence, 250 g ai/ha, scale 0 to 100 (0 no effect, 100 complete control)

| Structure (SMILES) | Plant response rating, Bermudagrass [1, 11] | Bermudagrass plant response rating (0 to 100 scale) [1, 12] | Plant response rating, Bermudagrass [1, 13] | Plant response rating, Bermudagrass [1, 14] | Plant response rating, Lambsquarters [2, 11] | Lambsquarters plant response rating (0 to 100 scale) [2, 12] | Plant response rating, Lambsquarters [2, 14] | Plant response rating, Wheat [3, 11] | Wheat plant response rating (0 to 100 scale) [3, 12] | Plant response rating, Wheat [3, 14] | Plant response rating, Pigweed [4, 11] | Pigweed plant response rating (0 to 100 scale) [4, 12] | Plant response rating, Pigweed [4, 14] | Plant response rating, Ragweed [5, 11] | Ragweed plant response rating (0 to 100 scale) [5, 12] | Plant response rating, Ragweed [5, 14] | Plant response rating, Ryegrass, Italian [6, 11] | Ryegrass, Italian plant response rating (0 to 100 scale) [6, 12] | Plant response rating, Ryegrass, Italian [6, 14] | Plant response rating, Canarygrass [7, 11] | also measured |
| --- | --- | --- | --- | --- | --- | --- | --- | --- | --- | --- | --- | --- | --- | --- | --- | --- | --- | --- | --- | --- | --- |
| CCCc1ncc(C(=O)C2=C(O)CCCC2=O)c(=O)n1-c1cccc(C)c1 [Compound 79] | 80 | 80 | 85 | 85 | 95 | 98 | 100 | 10 | 25 | 40 | 100 | 100 | 100 | 80 | 85 | 98 | 20 | 20 | 55 | 15 | Plant response rating, Lambsquarters [2, 13]: 100; Plant response rating, Wheat [3, 13]: 35; Plant response rating, Pigweed [4, 13]: 100; Plant response rating, Ragweed [5, 13]: 95; Plant response rating, Ryegrass, Italian [6, 13]: 50; Canarygrass plant response rating (0 to 100 scale) [7, 12]: 30; Plant response rating, Canarygrass [7, 13]: 35; Plant response rating, Canarygrass [7, 14]: 50; Plant response rating, Barley [8, 11]: 5; Barley plant response rating (0 to 100 scale) [8, 12]: 30; Plant response rating, Barley [8, 13]: 35; Plant response rating, Barley [8, 14]: 55; Plant response rating, Windgrass [9, 11]: 50; Windgrass plant response rating (0 to 100 scale) [9, 12]: 65; Plant response rating, Windgrass [9, 13]: 65; Plant response rating, Windgrass [9, 14]: 90; Plant response rating, Chickweed [10, 11]: 80; Chickweed plant response rating (0 to 100 scale) [10, 12]: 95; Plant response rating, Chickweed [10, 13]: 95; Plant response rating, Chickweed [10, 14]: 98 |
| O=C1CCCC(O)=C1C(=O)c1cnc(C2CC2)n(-c2ccccc2)c1=O [Compound 87] | 90 | 90 | 98 | 100 | 98 | 98 | 100 | 35 | 35 | 50 | 98 | 98 | 100 | 85 | 95 | 98 | 5 | 10 | 60 | 0 | Canarygrass plant response rating (0 to 100 scale) [7, 12]: 30; Plant response rating, Canarygrass [7, 13]: 35; Plant response rating, Canarygrass [7, 14]: 35; Plant response rating, Barley [8, 11]: 0; Barley plant response rating (0 to 100 scale) [8, 12]: 0; Plant response rating, Barley [8, 13]: 0; Plant response rating, Barley [8, 14]: 5; Plant response rating, Windgrass [9, 11]: 55; Windgrass plant response rating (0 to 100 scale) [9, 12]: 60; Plant response rating, Windgrass [9, 14]: 95; Plant response rating, Chickweed [10, 11]: 100; Chickweed plant response rating (0 to 100 scale) [10, 12]: 100; Plant response rating, Chickweed [10, 13]: 100; Plant response rating, Chickweed [10, 14]: 100 |
| O=C1CCCC(O)=C1C(=O)c1cnc(-c2ccccc2)n(C2CC2)c1=O [Compound 90] | 70 | 80 | 85 | 85 | 85 | 95 | 100 | 5 | 10 | 35 | 85 | 98 | 100 | 60 | 75 | 95 | 0 | 0 | 0 | 5 | Canarygrass plant response rating (0 to 100 scale) [7, 12]: 10; Plant response rating, Canarygrass [7, 13]: 30; Plant response rating, Canarygrass [7, 14]: 30; Plant response rating, Barley [8, 11]: 0; Barley plant response rating (0 to 100 scale) [8, 12]: 5; Plant response rating, Barley [8, 13]: 10; Plant response rating, Barley [8, 14]: 20; Plant response rating, Windgrass [9, 11]: 0; Windgrass plant response rating (0 to 100 scale) [9, 12]: 5; Plant response rating, Windgrass [9, 14]: 50; Plant response rating, Chickweed [10, 11]: 70; Chickweed plant response rating (0 to 100 scale) [10, 12]: 80; Plant response rating, Chickweed [10, 13]: 85; Plant response rating, Chickweed [10, 14]: 90 |
| COCCOCCn1c(-c2ccccc2)ncc(C(=O)C2=C(O)CCCC2=O)c1=O [Compound 91] | 75 | 95 | 95 | 95 | 85 | 100 | 100 | 0 | 10 | 50 | 100 | 100 | 100 | 85 | 85 | 98 | 0 | 5 | 20 | 25 | Canarygrass plant response rating (0 to 100 scale) [7, 12]: 55; Plant response rating, Canarygrass [7, 13]: 65; Plant response rating, Canarygrass [7, 14]: 75; Plant response rating, Barley [8, 11]: 0; Barley plant response rating (0 to 100 scale) [8, 12]: 30; Plant response rating, Barley [8, 13]: 30; Plant response rating, Barley [8, 14]: 40; Plant response rating, Windgrass [9, 11]: 10; Windgrass plant response rating (0 to 100 scale) [9, 12]: 40; Plant response rating, Windgrass [9, 14]: 65; Plant response rating, Chickweed [10, 11]: 85; Chickweed plant response rating (0 to 100 scale) [10, 12]: 95; Plant response rating, Chickweed [10, 13]: 98; Plant response rating, Chickweed [10, 14]: 100 |
